Values joined by “and” are separate entries in the source; they are usually repeats but may differ in a detail not shown here. Equal entries are not always repeated. Where two headings read alike, the source gives them in different places.
Experiments:
Assay in all cases: microbe, parasite or virus in culture
Format in all cases: cell-based, Plasmodium falciparum
[1] = system: PfAsnRS cKD P. falciparum line; details: for growth after 72 h exposure, normalised to no drug: PfAsnRS K/D, replicates
From the text: (§1) Conditional knockdown (cKD) P. falciparum lines were generated for the cytosolic AsnRS (PF3D7_0211800), cytosolic AlaRS (PF3D7_1367700), cytosolic GlyRS (GlyRS; PF3D7_1420400), PfNT4 (PF3D7_0103200), P. falciparum glutamate dehydrogenase 3 (GDH3; PF3D7_0802000), and P. falciparum carbonic anhydrase (CA, PF3D7_1140000) by fusing the coding sequences and non-coding RNA aptamer sequences in the 3’-UTR, permitting translation regulation using the TetR-DOZI system[59],[60]. Gene editing was achieved by CRISPR/SpCas9 using the linear pSN054 vector that contains cloning sites for the left homology region (LHR) and the right homology region (RHR) as well a target-specific guide RNA under control of the T7 promoter. Cloning into the pSN054 donor vector was carried out following described procedures[59],[60]. The vector includes V5-2xHA epitope tags, a 10x tandem array of TetR aptamers upstream of an Hsp86 3’UTR, and a multicistronic cassette for expression of TetR-DOZI (translation regulation), blasticidin S-deaminase (selection marker) and a Renilla luciferase (RLuc) reporter. All primer and synthetic fragment sequences that were generated using the BioXP™ system and IDT gBlocks™ are included in Supplementary Table 9. The final constructs were sequence-verified and further confirmed by restriction digests.
(§2) Transfection into Cas9- and T7 RNA polymerase-expressing NF54 parasites was carried out by pre-loading red blood cells (RBCs) with the donor vector[61]. […] Cultures were monitored by Giemsa smears and RLuc measurements.
(§3) DMSO- and dihydroartemisinin-treatment (0.5 µM) served as reference controls.

[2] = system: PfCA cKD P. falciparum line; details: for Growth: PfCA K/D
From the text: as §1, §2, §3

[3] = system: PfGDH3 cKD P. falciparum line; details: for Growth: PfGDH K/D
From the text: as §1, §2, §3

[4] = system: PfGlyRS cKD P. falciparum line; details: for Growth: PfGlyRS K/D; for IC50: PfGlyRS line, individual repeats
From the text: as §1, §2, §3

Q: For `Nc1ncnc2cc(-c3cccc(S(N)(=O)=O)c3)sc12` [OSM-S-106], which “growth after 72 h exposure, normalised to no drug” value (shortened to “growth … normalised to no drug”) ([1]; 500 nM aTc, 50 nM) is on record?
A: Its value is 109.874 and 96.9998 and 112.12.

Q: What about the “growth … normalised to no drug” value ([1]; 500 nM aTc, 100 nM) of the same compound?
A: Its value is 74.5373 and 61.9971 and 57.4067.

Q: What about the “growth … normalised to no drug” value ([1]; 500 nM aTc, 200 nM) of the same compound?
A: Its value is 13.0647 and 13.1882 and 56.7167.

Q: And the “growth … normalised to no drug” value ([1]; 500 nM aTc, 400 nM)?
A: Its value is 1.083 and 1.38 and 11.7035.

Q: And the “growth … normalised to no drug” value ([1]; 500 nM aTc, 800 nM)?
A: Its value is 0 (2×) and 1.573.

Q: What about the “growth … normalised to no drug” value ([1]; 500 nM aTc, […]) of the same compound?
A: Its value is 123.179.

Q: What about the IC50 ([1]; PfAsnRS line, 500 nM aTc, individual repeats) of the same compound?
A: Its IC50 is 116 nM and 175 nM.

Q: And the IC50 ([1]; Plasmodium falciparum, PfAsnRS line, 500 nM aTc, individual repeats)?
A: The IC50 was 123 nM.

Q: What about the IC50 ([1]; Plasmodium falciparum, read-out: Mean IC50 with 500 nM aTc, PfAsnRS line, 500 nM aTc) of the same compound?
A: The IC50 was 140 nM.

Q: What about the IC50 ([1]; Plasmodium falciparum, read-out: Mean IC50 with low (1 or […])/ no aTc, PfAsnRS knockdown, low aTc) of the same compound?
A: Its IC50 is 26 nM.

Q: What about the Growth ([2]; 3.125 nM OSM-S-106, 500 nM aTc) of the same compound?
A: The Growth was 126.787 and 158.672 and 147.974.

Q: And the Growth ([2]; 3.125 nM OSM-S-106, no aTc)?
A: The Growth was 126.423 and 113.544 and 101.394.

Q: What about the Growth ([2]; 6.25 nM OSM-S-106, 500 nM aTc) of the same compound?
A: The Growth was 92.3654 and 131.4 and 126.99.

Q: What about the Growth ([2]; 6.25 nM OSM-S-106, no aTc) of the same compound?
A: The Growth was 110.949 and 103.392 and 134.667.

Q: What about the Growth ([2]; 12.5 nM OSM-S-106, 500 nM aTc) of the same compound?
A: Its Growth is 103.771 and 150.344 and 136.72.

Q: And the Growth ([2]; 12.5 nM OSM-S-106, no aTc)?
A: Its Growth is 107.898 and 113.66 and 101.587.

Q: What about the Growth ([2]; 25 nM OSM-S-106, 500 nM aTc) of the same compound?
A: Its Growth is 66.7109 and 104.005 and 106.363.

Q: And the Growth ([2]; 25 nM OSM-S-106, no aTc)?
A: The Growth was 55.2693 and 67.1039 and 67.9395.

Q: And the Growth ([2]; 50 nM OSM-S-106, 500 nM aTc)?
A: Its Growth is 39.8979 and 23.9771 and 45.5735.

Q: And the Growth ([2]; 50 nM OSM-S-106, no aTc)?
A: The Growth was 31.2463 and 15.9234 and 30.4793.

Q: What about the Growth ([2]; 100 nM OSM-S-106, 500 nM aTc) of the same compound?
A: The Growth was 11.4398.

Q: What about the Growth ([2]; 100 nM OSM-S-106, no aTc) of the same compound?
A: The Growth was 10.8379 and 9.475 and 12.418.

Q: And the Growth ([2]; 200 nM OSM-S-106, 500 nM aTc)?
A: The Growth was 5.818 and 8.3279 and 9.44.

Q: What about the Growth ([2]; 200 nM OSM-S-106, no aTc) of the same compound?
A: Its Growth is 6.983 and 9.353 and 10.7306.

Q: And the Growth ([2]; 400 nM OSM-S-106, no aTc)?
A: The Growth was 0.8215 and 0.8297 and 1.231.

Q: And the IC50 ([2]; PfCA line, 500 nM aTc, individual repeats)?
A: The IC50 was 31.3 nM and 37.6 nM.

Q: And the IC50 ([2]; Plasmodium falciparum, PfCA line, 1 nM, […] aTc or no aTc, individual repeats)?
A: The IC50 was 23 nM.

Q: And the IC50 ([2]; Plasmodium falciparum, PfCA line, 500 nM aTc, individual repeats)?
A: The IC50 was 29.2 nM.

Q: And the IC50 ([2]; Plasmodium falciparum, read-out: Mean IC50 with 500 nM aTc, PfCA line, 500 nM aTc)?
A: Its IC50 is 33 nM.

Q: And the IC50 ([2]; Plasmodium falciparum, read-out: Mean IC50 with low (1 or […])/ no aTc, PfCA knockdown, no aTc)?
A: The IC50 was 26 nM.

Q: What about the Growth ([3]; 3.125 nM OSM-S-106, 500 nM aTc) of the same compound?
A: The Growth was 94.0541 and 124.457 and 123.311 and 110.909.

Q: What about the Growth ([3]; 3.125 nM OSM-S-106, no aTc) of the same compound?
A: The Growth was 87.3995 and 105.933 and 109.078 and 106.271.

Q: And the Growth ([3]; 6.25 nM OSM-S-106, 500 nM aTc)?
A: The Growth was 100.123 and 114.751 and 110.911 and 107.384.

Q: What about the Growth ([3]; 6.25 nM OSM-S-106, no aTc) of the same compound?
A: The Growth was 83.7383 and 126.64 and 124.278 and 107.945.

Q: What about the Growth ([3]; 12.5 nM OSM-S-106, 500 nM aTc) of the same compound?
A: Its Growth is 87.2036 and 124.904 and 116.677 and 110.631.

Q: What about the Growth ([3]; 12.5 nM OSM-S-106, no aTc) of the same compound?
A: The Growth was 66.2785 and 97.9464 and 116.025 and 105.41.

Q: What about the Growth ([3]; 200 nM OSM-S-106, 500 nM aTc) of the same compound?
A: The Growth was 11.4175 and 15.1341 and 15.4371 and 10.7452.

Q: And the Growth ([3]; 200 nM OSM-S-106, no aTc)?
A: Its Growth is 9.827 and 15.4022 and 15.1307 and 8.291.

Q: And the IC50 ([3]; PfGDH3 line, 500 nM aTc, individual repeats)?
A: The IC50 was 22.8 nM and 69.5 nM and 36.5 nM and 30.2 nM.

Q: What about the IC50 ([3]; Plasmodium falciparum, read-out: Mean IC50 with 500 nM aTc, PfGDH3 line, 500 nM aTc) of the same compound?
A: The IC50 was 40 nM.

Q: And the IC50 ([3]; Plasmodium falciparum, read-out: Mean IC50 with low (1 or […])/ no aTc, PfGDH3 knockdown, no aTc)?
A: The IC50 was 46 nM.

Q: And the Growth ([4]; 3.125 nM OSM-S-106, 500 nM aTc)?
A: Its Growth is 112.465 and 111.772 and 85.4538.

Q: What about the Growth ([4]; 6.25 nM OSM-S-106, 500 nM aTc) of the same compound?
A: Its Growth is 122.27 and 121.35 and 91.2762.

Q: And the Growth ([4]; 12.5 nM OSM-S-106, 500 nM aTc)?
A: The Growth was 106.05 and 112.162 and 76.632.

Q: And the Growth ([4]; 100 nM OSM-S-106, 500 nM aTc)?
A: The Growth was 9.878 and 6.142 and 8.685.

Q: What about the Growth ([4]; 200 nM OSM-S-106, 500 nM aTc) of the same compound?
A: The Growth was 7.891 and 8.53 and 4.96.

Q: And the IC50 ([4]; 1 nM, […] aTc or no aTc)?
A: Its IC50 is 40.7 nM.

Q: What about the IC50 ([4]; 500 nM aTc) of the same compound?
A: Its IC50 is 37.2 nM.

Q: What about the IC50 ([4]; Plasmodium falciparum, 1 nM, […] aTc or no aTc) of the same compound?
A: Its IC50 is 39.5 nM.

Q: And the IC50 ([4]; Plasmodium falciparum, 500 nM aTc)?
A: Its IC50 is 39.3 nM.
